Reference: ChEMBL document CHEMBL1154288, “The discovery and unique pharmacological profile of RO4938581 and RO4882224 as potent and selective GABAA alpha5 inverse agonists for the treatment of cognitive dysfunction” (Bioorg Med Chem Lett, 2009)
Converted amounts (≈) assume the structure as drawn.

Assays:
[1] = Selectivity ratio of Ki for cloned human GABA alpha-2-beta-3-gamma-2 receptor expressed in insect SF9 cells to Ki for cloned human GABA alpha-5-beta-3-gamma-2 receptor expressed in insect SF9 cells
[2] = Selectivity ratio of Ki for cloned human GABA alpha-3-beta-3-gamma-2 receptor expressed in insect SF9 cells to Ki for cloned human GABA alpha-5-beta-3-gamma-2 receptor expressed in insect SF9 cells
[3] = target: T1, GABA-A receptor; alpha-5/beta-3/gamma-2 (Homo sapiens, UniProt P18507+P28472+P31644); assay: Displacement of [3H]Flumazenil from human GABA alpha-5-beta-3-gamma-2 receptor expressed in insect SF9 cells
T1 sequence (P18507 whole entry): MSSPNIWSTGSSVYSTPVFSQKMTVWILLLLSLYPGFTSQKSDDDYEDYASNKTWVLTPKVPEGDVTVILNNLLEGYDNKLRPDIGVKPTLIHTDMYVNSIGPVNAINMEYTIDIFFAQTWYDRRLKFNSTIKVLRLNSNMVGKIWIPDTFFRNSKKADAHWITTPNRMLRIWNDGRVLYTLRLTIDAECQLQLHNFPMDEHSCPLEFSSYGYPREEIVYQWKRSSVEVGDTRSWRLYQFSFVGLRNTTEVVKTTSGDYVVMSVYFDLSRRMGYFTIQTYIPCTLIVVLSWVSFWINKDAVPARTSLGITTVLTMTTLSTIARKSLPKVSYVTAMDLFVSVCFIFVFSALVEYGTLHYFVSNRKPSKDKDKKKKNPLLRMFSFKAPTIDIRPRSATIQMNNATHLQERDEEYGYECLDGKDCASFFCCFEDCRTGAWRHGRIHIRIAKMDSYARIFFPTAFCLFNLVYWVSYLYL
T1 sequence (P28472 whole entry): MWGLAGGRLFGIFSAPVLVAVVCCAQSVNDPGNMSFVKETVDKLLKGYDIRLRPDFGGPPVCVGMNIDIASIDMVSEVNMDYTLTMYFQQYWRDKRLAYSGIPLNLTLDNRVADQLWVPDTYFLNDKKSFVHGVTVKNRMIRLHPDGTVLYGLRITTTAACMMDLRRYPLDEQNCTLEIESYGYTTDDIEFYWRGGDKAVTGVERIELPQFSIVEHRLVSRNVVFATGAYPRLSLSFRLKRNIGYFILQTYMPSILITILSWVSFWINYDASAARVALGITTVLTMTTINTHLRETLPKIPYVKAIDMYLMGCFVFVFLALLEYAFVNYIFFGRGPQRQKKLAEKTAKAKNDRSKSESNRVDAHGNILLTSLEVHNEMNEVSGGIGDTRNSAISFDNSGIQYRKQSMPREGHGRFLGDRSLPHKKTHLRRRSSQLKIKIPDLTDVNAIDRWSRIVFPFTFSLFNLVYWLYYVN
T1 sequence (P31644 whole entry): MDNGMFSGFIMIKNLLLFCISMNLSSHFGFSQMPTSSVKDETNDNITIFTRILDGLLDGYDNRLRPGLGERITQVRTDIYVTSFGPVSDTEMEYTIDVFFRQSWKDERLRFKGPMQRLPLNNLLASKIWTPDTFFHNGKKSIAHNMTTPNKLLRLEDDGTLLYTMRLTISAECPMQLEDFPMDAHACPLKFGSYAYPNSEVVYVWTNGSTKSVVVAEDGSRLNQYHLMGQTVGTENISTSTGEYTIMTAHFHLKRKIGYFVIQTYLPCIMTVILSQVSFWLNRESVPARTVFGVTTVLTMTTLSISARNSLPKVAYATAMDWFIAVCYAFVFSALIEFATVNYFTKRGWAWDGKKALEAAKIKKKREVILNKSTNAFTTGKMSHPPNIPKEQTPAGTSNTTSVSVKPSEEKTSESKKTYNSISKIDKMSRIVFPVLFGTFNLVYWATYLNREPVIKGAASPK

[4] = Selectivity ratio of Ki for cloned human GABA alpha-1-beta-3-gamma-2 receptor expressed in insect SF9 cells to Ki for cloned human GABA alpha-5-beta-3-gamma-2 receptor expressed in insect SF9 cells
[5] = target: GABA A receptor alpha-5/beta-3/gamma-2 (Rattus norvegicus) (UniProt P18508+P19969+P63079); assay: Inverse agonist activity at rat GABA alpha-5-beta-3-gamma-2 receptor expressed in HEK293 cells by electrophysiology assay relative to GABA; format: functional, cell-based
[6] = Half life in rat; format: ADME, organism-based; conditions: in vivo
HEK293 [7] = assay: Selectivity ratio of Ki for cloned human GABA alpha-1-beta-3-gamma-2 receptor expressed in HEK293 cells to Ki for cloned human GABA alpha-5-beta-3-gamma-2 receptor expressed in HEK293 cells; format: cell-based
HEK293 [8] = assay: Selectivity ratio of Ki for cloned human GABA alpha-2-beta-3-gamma-2 receptor expressed in HEK293 cells to Ki for cloned human GABA alpha-5-beta-3-gamma-2 receptor expressed in HEK293 cells; format: cell-based
[9] = Permeability by PAMPA; format: ADME; conditions: read-out: permeability
[10] = Lipophilicity, log D at pH 7.4; format: physicochemical; conditions: buffer
[11] = Oral bioavailability in rat; format: ADME, organism-based; conditions: in vivo
[12] = Solubility by lypophlisation solubility assay; format: physicochemical
[13] = target: GABA-A receptor; alpha-1/beta-2/gamma-2 (Rattus norvegicus) (UniProt P18508+P62813+P63138); assay: Inverse agonist activity at rat GABA alpha-1-beta-3-gamma-2 receptor expressed in HEK293 cells by electrophysiology assay relative to GABA; format: functional, cell-based
HEK293 [14] = assay: Selectivity ratio of Ki for cloned human GABA alpha-3-beta-3-gamma-2 receptor expressed in HEK293 cells to Ki for cloned human GABA alpha-5-beta-3-gamma-2 receptor expressed in HEK293 cells; format: cell-based
[15] = Volume of distribution at steady state in rat; format: ADME, organism-based; conditions: in vivo, read-out: Vdss
[16] = target: T1, GABA-A receptor; alpha-5/beta-3/gamma-2; assay: Displacement of [3H]Flumazenil from cloned human GABA alpha-5-beta-3-gamma-2 receptor expressed in HEK293 cells; format: cell-based
[17] = Clearance in rat; format: ADME, organism-based; conditions: in vivo
[18] = target: T2, GABA-A receptor; alpha-1/beta-3/gamma-2 (Homo sapiens, UniProt P14867+P18507+P28472); assay: Displacement of [3H]Flumazenil from cloned human GABA alpha-1-beta-3-gamma-2 receptor expressed in HEK293 cells; format: cell-based
T2 sequence (P14867 whole entry): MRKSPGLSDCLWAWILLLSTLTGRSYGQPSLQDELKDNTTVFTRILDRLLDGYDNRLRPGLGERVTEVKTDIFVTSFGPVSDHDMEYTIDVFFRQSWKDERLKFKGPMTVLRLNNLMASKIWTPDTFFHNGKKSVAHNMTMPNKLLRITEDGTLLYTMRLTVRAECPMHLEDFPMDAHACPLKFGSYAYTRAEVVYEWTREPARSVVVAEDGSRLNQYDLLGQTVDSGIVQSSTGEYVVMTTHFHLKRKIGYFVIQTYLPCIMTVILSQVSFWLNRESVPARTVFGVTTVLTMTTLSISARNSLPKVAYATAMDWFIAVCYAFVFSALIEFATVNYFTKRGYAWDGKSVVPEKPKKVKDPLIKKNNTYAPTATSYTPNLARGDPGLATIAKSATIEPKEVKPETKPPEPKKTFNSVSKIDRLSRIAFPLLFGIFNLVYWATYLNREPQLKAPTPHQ
T2 sequence (P18507 whole entry): T1 sequence (P18507 whole entry)
T2 sequence (P28472 whole entry): T1 sequence (P28472 whole entry)

[19] = target: Gamma-aminobutyric acid receptor subunit alpha-3 (Rattus norvegicus) (UniProt P20236); assay: Inverse agonist activity at rat GABA alpha-3-beta-3-gamma-2 receptor expressed in HEK293 cells by electrophysiology assay relative to GABA; format: functional, cell-based
[20] = target: T3, GABA-A receptor; alpha-3/beta-3/gamma-2 (Homo sapiens, UniProt P18507+P28472+P34903); assay: Displacement of [3H]Flumazenil from cloned human GABA alpha-3-beta-3-gamma-2 receptor expressed in HEK293 cells; format: cell-based
T3 sequence (P18507 whole entry): T1 sequence (P18507 whole entry)
T3 sequence (P28472 whole entry): T1 sequence (P28472 whole entry)
T3 sequence (P34903 whole entry): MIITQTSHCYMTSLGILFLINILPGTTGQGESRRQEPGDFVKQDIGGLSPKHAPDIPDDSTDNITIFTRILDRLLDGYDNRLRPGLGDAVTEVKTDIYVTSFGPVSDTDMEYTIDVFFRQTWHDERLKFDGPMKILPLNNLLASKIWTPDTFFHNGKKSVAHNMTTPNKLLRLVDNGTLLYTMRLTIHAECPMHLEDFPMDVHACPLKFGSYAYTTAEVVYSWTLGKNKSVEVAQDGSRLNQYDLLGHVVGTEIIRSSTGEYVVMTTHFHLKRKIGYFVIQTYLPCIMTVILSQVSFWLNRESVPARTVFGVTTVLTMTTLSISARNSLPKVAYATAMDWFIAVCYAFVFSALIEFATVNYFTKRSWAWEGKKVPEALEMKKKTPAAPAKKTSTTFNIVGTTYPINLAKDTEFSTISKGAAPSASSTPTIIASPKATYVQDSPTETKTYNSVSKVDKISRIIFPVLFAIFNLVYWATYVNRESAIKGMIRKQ

[21] = target: GABA A receptor alpha-2/beta-2/gamma-2 (Rattus norvegicus) (UniProt P18508+P23576+P63138); assay: Inverse agonist activity at rat GABA alpha-2-beta-3-gamma-2 receptor expressed in HEK293 cells by electrophysiology assay relative to GABA; format: functional, cell-based
[22] = target: T4, GABA-A receptor; alpha-2/beta-3/gamma-2 (Homo sapiens, UniProt P18507+P28472+P47869); assay: Displacement of [3H]Flumazenil from cloned human GABA alpha-2-beta-3-gamma-2 receptor expressed in HEK293 cells; format: cell-based
T4 sequence (P18507 whole entry): T1 sequence (P18507 whole entry)
T4 sequence (P28472 whole entry): T1 sequence (P28472 whole entry)
T4 sequence (P47869 whole entry): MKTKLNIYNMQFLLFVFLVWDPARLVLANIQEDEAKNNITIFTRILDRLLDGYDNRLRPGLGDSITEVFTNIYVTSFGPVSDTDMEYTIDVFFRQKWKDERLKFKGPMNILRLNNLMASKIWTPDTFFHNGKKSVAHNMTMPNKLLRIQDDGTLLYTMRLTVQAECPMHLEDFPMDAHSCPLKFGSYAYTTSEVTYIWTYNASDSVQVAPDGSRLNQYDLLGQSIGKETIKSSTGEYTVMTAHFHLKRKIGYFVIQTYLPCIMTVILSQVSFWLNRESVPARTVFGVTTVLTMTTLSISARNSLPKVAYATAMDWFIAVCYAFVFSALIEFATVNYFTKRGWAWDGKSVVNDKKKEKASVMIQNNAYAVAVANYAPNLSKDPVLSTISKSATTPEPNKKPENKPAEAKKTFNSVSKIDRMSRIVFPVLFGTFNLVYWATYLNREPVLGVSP

[23] = target: GABA-A receptor; alpha-5/beta-3/gamma-2 (Homo sapiens) (UniProt P18507+P28472+P31644); assay: Inverse agonist activity at human GABA alpha-5-beta-3-gamma-2 receptor expressed in Xenopus laevis oocyts by electrophysiology assay relative to GABA; format: functional

Gamma-aminobutyric acid receptor subunit alpha-3 (Rattus norvegicus), sequence (P20236 whole entry): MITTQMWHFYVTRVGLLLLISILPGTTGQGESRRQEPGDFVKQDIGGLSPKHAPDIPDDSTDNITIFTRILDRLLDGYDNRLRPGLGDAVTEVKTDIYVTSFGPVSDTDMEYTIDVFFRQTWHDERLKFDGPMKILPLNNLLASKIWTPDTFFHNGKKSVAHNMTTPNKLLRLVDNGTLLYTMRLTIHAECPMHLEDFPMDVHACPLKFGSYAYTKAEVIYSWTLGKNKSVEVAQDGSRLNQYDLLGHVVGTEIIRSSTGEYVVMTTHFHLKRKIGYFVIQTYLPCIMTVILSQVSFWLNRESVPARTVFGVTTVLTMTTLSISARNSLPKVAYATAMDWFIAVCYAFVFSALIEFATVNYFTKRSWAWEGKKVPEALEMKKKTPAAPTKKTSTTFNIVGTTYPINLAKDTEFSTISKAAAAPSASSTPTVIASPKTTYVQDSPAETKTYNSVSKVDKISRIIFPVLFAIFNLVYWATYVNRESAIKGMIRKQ

Structure (SMILES): Fc1ccc2c(c1)-c1ncnn1Cc1cncn1-2
- Ratio Ki [1]: 4
- Ratio Ki [2]: 3
- Ki [3]: 10 nM
- Ratio Ki [4]: 12
- Efficacy [5]: -45%

Structure (SMILES): Cc1ncn2c1Cn1ncnc1-c1cc(Br)ccc1-2
- half-life [6]: 7.7 h
- Ratio Ki (HEK293 [7]): 22
- Ratio Ki (HEK293 [8]): 30
- Papp [9]: 7.6 ×10⁻⁶ cm/s
- logD [10]: 1.6
- bioavailability [11]: 80%
- solubility [12]: 78 µg/mL (≈ 247 µM)
- Efficacy [13]: -9%
- Ratio Ki (HEK293 [14]): 21
- Vd [15]: 0.4 L/kg
- Ki [16]: 6.2 nM
- Efficacy [5]: -42%
- clearance [17]: 0.6 mL/min/kg

Structure (SMILES): Fc1ccc2c(c1)-c1ncnn1Cc1c(Cl)ncn1-2
- Ratio Ki [1]: 4
- Ratio Ki [2]: 3
- Ki [3]: 0.3 nM
- Ratio Ki [4]: 3
- Efficacy [5]: -33%

Structure (SMILES): CCOC(=O)c1ncn2c1Cn1ncnc1-c1cc(F)ccc1-2
- Ratio [1]: 1
- Ratio Ki [2]: 1
- Ki [3]: 0.2 nM
- Ratio Ki [4]: 1
- Efficacy [5]: -16%

Structure (SMILES): FC(F)c1ncn2c1Cn1ncnc1-c1cc(Cl)ccc1-2
- Ki [18]: 53 nM
- half-life [6]: 0.9 h
- Efficacy [19]: 21%
- Papp [9]: 6.3 ×10⁻⁶ cm/s
- logD [10]: 2
- Ki [20]: 48 nM
- Efficacy [21]: 2%
- bioavailability [11]: 87%
- solubility [12]: 58 µg/mL (≈ 189 µM)
- Efficacy [13]: -20%
- Ki [22]: 81 nM
- Vd [15]: 0.3 L/kg
- Ki [16]: 5.6 nM
- Efficacy [5]: -18%
- clearance [17]: 3.8 mL/min/kg

Structure (SMILES): c1ccc2c(c1)-c1ncnn1Cc1cncn1-2
- Ratio Ki [1]: 0.05
- Ratio Ki [2]: 0.06
- Ratio Ki [4]: 15
- Efficacy [5]: -37%

Structure (SMILES): COc1ccc2c(c1)-c1ncnn1Cc1c(C)ncn1-2
- Efficacy [23]: -45%
- Ratio Ki (HEK293 [7]): 11
- Ratio Ki (HEK293 [8]): 31
- Ratio Ki (HEK293 [14]): 18
- Ki [16]: 7.7 nM

Structure (SMILES): Cc1ncn2c1Cn1ncnc1-c1cc(I)ccc1-2
- Efficacy [23]: -57%
- Ratio Ki (HEK293 [7]): 42
- Ratio Ki (HEK293 [8]): 60
- Ratio Ki (HEK293 [14]): 29
- Ki [16]: 4.4 nM

Structure (SMILES): CCC(=O)c1ncn2c1Cn1ncnc1-c1cc(Cl)ccc1-2
- Ratio Ki [1]: 11
- Ratio Ki [2]: 8
- Ki [3]: 2.6 nM
- Ratio Ki [4]: 12
- Efficacy [5]: -38%

Structure (SMILES): Cc1ncn2c1Cn1ncnc1-c1cc(OC(F)F)ccc1-2
- Efficacy [23]: -43%
- Ratio Ki (HEK293 [7]): 58
- Ratio Ki (HEK293 [8]): 53
- Ratio Ki (HEK293 [14]): 33
- Ki [16]: 1.8 nM

Structure (SMILES): N#Cc1ncn2c1Cn1ncnc1-c1cc(Cl)ccc1-2
- Ratio Ki [1]: 11
- Ratio Ki [2]: 9
- Ki [3]: 6.4 nM
- Ratio Ki [4]: 7
- Efficacy [5]: -31%
